In patent US20230144436A1, “MUSCLE TARGETING COMPLEXES AND USES THEREOF FOR TREATING MYOTONIC DYSTROPHY” (Dyne Therapeutics, Inc., priority 2020, published 2023):

Test system: DMPK
Assay: DMPK knockdown by transfected antisense oligonucleotides in DM1 C15 myotubes at 0.5 nM and 50 nM
Format: cell-based
Settings: 72 hours; for Normalized DMPK Remaining: relative to vehicle control = 1.00
Procedure, shortened: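 DMPK remaining was measured by qPCR 72 h post-transfection, normalized to lipofectamine-only vehicle wells (=1.00). Oligonucleotides were delivered at 0.5 and 50 nM final to DM1 C15 myoblasts differentiated seven days into myotubes, in triplicate.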

[1] = 0.5 nM oligonucleotide, qPCR, relative to vehicle control
[2] = 50 nM oligonucleotide, qPCR, relative to vehicle control

Substance | Percent DMPK Reduction [1] [%] | Normalized DMPK Remaining (0.5 nM oligonucleotide, qPCR) | Percent DMPK Reduction [2] [%] | Normalized DMPK Remaining (50 nM oligonucleotide, qPCR) | Percent DMPK Reduction (0.5 nM oligonucleotide) [%] | Normalized DMPK Remaining (0.5 nM oligonucleotide) | Percent DMPK Reduction (50 nM oligonucleotide) [%] | Normalized DMPK Remaining (50 nM oligonucleotide)
321 (GCUCCCUCUGCCUGCAGCAA; chemistry not given here) [compound 321] | 26.41 | 0.74 | 70.15 | 0.30 | – | – | – | –
473 (CUUGUAGUGGACGAUCUUGC; chemistry not given here) [compound 473] | – | – | – | – | 24.09 | 0.76 | 89.16 | 0.11
433 (GCGGAUGGCCUCCAUCUCCC; chemistry not given here) [compound 433] | – | – | – | – | 21.25 | 0.79 | 71.77 | 0.28
372 (UGGCCAUGACAAUCUCCGCC; chemistry not given here) [compound 372] | 30.46 | 0.70 | 72.55 | 0.27 | – | – | – | –
467 (AGCUCCCGCAGCGUCACCUC; chemistry not given here) [compound 467] | – | – | – | – | 13.72 | 0.86 | 80.40 | 0.20
255 (GUUGCGGGUUUGAUGUCCC; chemistry not given here) [compound 255] | 33.31 | 0.67 | 61.07 | 0.39 | – | – | – | –
388 (UGGAACACGGACGGCCCGGC; chemistry not given here) [compound 388] | – | – | – | – | -1.90 | 1.02 | 60.96 | 0.39
374 (CCGCUCCCCAAACUUGCUCA; chemistry not given here) [compound 374] | 0.28 | 1.00 | 56.82 | 0.43 | – | – | – | –
443 (CCAUCCGCUCCUGCAACUGC; chemistry not given here) [compound 443] | – | – | – | – | 19.53 | 0.80 | 71.62 | 0.28
333 (AUGGCAUACACCUGGCCCGU; chemistry not given here) [compound 333] | 14.31 | 0.86 | 49.63 | 0.50 | – | – | – | –
292 (GCCUCUGCCUCGCGUAGUUG; chemistry not given here) [compound 292] | 35.38 | 0.65 | 81.18 | 0.19 | – | – | – | –
315 (GCUCCUGGGCGGCGCCAGAC; chemistry not given here) [compound 315] | 8.52 | 0.91 | 78.79 | 0.21 | – | – | – | –
382 (AUGUCCCUGUGCACGUAGCC; chemistry not given here) [compound 382] | – | – | – | – | 16.78 | 0.83 | 49.29 | 0.51
306 (AGGGACAGCCGCUGGAACTG; chemistry not given here) [compound 306] | 28.72 | 0.71 | 45.34 | 0.55 | – | – | – | –
262 (UGUCGGGUUUGAUGUCCCUG; chemistry not given here) [compound 262] | 30.09 | 0.70 | 68.14 | 0.32 | – | – | – | –
475 (GCCUCAGCCUGGCCGAAAGA; chemistry not given here) [compound 475] | – | – | – | – | -4.82 | 1.05 | 63.11 | 0.37

Substance | Percent DMPK Reduction [1] [%] | Normalized DMPK Remaining (0.5 nM oligonucleotide, qPCR) | Percent DMPK Reduction [2] [%] | Normalized DMPK Remaining (50 nM oligonucleotide, qPCR) | Percent DMPK Reduction (0.5 nM oligonucleotide) [%] | Normalized DMPK Remaining (0.5 nM oligonucleotide) | Percent DMPK Reduction (50 nM oligonucleotide) [%] | Normalized DMPK Remaining (50 nM oligonucleotide)
385 (GUUGGCCGGCGUGGGCCACC; chemistry not given here) [compound 385] | – | – | – | – | -1.82 | 1.02 | 43.57 | 0.56
469 (CAGGGAAAGCGCCUCCGAUA; chemistry not given here) [compound 469] | – | – | – | – | 11.10 | 0.89 | 91.59 | 0.08
420 (ACAAUCUCCGCCAGGUAGAA; chemistry not given here) [compound 420] | – | – | – | – | 19.09 | 0.81 | 49.75 | 0.50
396 (ACAGACAAUAAAUACCGAGG; chemistry not given here) [compound 396] | – | – | – | – | -3.95 | 1.04 | 74.02 | 0.26
254 (UUGUCGGGUUUGAUGUCCCU; chemistry not given here) [compound 254] | 34.16 | 0.66 | 55.56 | 0.44 | – | – | – | –
317 (AUCCGCUCCUGCAACUGCCG; chemistry not given here) [compound 317] | 12.80 | 0.87 | 40.06 | 0.60 | – | – | – | –
304 (UUCCCGAGUAAGCAGGCAGA; chemistry not given here) [compound 304] | 31.49 | 0.69 | 49.81 | 0.50 | – | – | – | –
263 (GGAUGGCCUCCAUCUCCCGG; chemistry not given here) [compound 263] | 24.93 | 0.75 | 60.77 | 0.39 | – | – | – | –
431 (GGAGCAGGGAAAGCGCCUCC; chemistry not given here) [compound 431] | – | – | – | – | 21.46 | 0.79 | 88.35 | 0.12
365 (UCUCAGUGCAUCCAAAACGU; chemistry not given here) [compound 365] | 10.88 | 0.89 | 51.34 | 0.49 | – | – | – | –
400 (UGACCAGGUACAGGUAGUUC; chemistry not given here) [compound 400] | – | – | – | – | 22.00 | 0.78 | 63.73 | 0.36
336 (GAUGUUGUCGGGUUUGAUGU; chemistry not given here) [compound 336] | 10.06 | 0.90 | 42.42 | 0.58 | – | – | – | –
268 (UCAGUGCAUCCAAAACGUGG; chemistry not given here) [compound 268] | 15.76 | 0.84 | 42.06 | 0.58 | – | – | – | –
457 (GGGCCUUUUAUUCGCGAGGG; chemistry not given here) [compound 457] | – | – | – | – | 5.11 | 0.95 | 50.65 | 0.49
419 (UGCGGAUGGCCUCCAUCUCC; chemistry not given here) [compound 419] | – | – | – | – | 40.15 | 0.60 | 84.43 | 0.16
409 (GGCUUGCUGCCUUCCCAGGC; chemistry not given here) [compound 409] | – | – | – | – | -6.32 | 1.06 | 48.15 | 0.52
